The target of assay [1] is α-glucosidase (yeast). Conditions: cited from earlier work; for Ki: literature values, read-out: Inhibition activity Ki, α-glucosidase (yeast).
Assay [2] addresses T1, α-glucosidase (rice) (Oryza sativa subsp. japonica, UniProt Q653V7).
T1 construct: purchased Sigma
As to conditions: cited from earlier work; for Ki: literature values, read-out: Inhibition activity Ki, α-glucosidase (rice).

Assay [3] addresses β-glucosidase (almond). As to conditions: cited from earlier work.
The target of assay [4] is T2, α-galactosidase (green coffee beans) (Coffea arabica, UniProt Q42656).
T2 construct: purchased Sigma
Conditions: literature values; n.i. = no inhibition observed; cited from earlier work.

The next assay concerns β-glucosidase. Conditions: literature, enzyme source not stated; cited from earlier work.
For assay [5], the target named is T3, α-mannosidase (jack beans) (Canavalia ensiformis, UniProt C0HJB3).
T3 construct: purchased Sigma
T3 sequence (C0HJB3 1-562 limits assumed): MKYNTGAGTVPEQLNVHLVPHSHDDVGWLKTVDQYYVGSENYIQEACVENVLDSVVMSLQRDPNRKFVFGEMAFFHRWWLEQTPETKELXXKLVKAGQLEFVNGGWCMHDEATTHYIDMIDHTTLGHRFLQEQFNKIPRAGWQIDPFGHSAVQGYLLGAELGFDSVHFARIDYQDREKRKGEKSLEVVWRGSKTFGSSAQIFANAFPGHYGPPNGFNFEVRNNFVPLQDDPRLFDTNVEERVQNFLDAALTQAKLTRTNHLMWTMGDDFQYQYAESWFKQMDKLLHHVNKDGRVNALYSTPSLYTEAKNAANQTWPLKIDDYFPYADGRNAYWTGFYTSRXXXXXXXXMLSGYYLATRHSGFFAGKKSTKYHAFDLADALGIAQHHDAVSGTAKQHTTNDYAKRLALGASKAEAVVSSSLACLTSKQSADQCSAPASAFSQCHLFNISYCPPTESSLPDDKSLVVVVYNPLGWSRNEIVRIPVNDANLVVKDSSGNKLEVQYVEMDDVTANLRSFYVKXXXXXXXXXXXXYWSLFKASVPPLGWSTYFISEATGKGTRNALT
T3 sequence (C0HJB3 563-981 limits assumed): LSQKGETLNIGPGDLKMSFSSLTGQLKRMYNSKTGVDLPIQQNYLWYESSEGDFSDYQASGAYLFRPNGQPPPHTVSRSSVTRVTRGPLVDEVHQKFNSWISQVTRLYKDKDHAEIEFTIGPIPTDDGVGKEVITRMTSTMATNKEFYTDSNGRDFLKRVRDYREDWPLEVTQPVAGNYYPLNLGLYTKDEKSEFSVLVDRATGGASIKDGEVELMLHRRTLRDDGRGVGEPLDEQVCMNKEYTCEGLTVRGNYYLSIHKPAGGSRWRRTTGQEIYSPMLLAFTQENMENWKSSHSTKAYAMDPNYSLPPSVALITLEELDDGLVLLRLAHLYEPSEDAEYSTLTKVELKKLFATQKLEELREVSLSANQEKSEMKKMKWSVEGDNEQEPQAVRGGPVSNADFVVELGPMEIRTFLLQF
Conditions: cited from earlier work.

For assay [6], the system named is T4, α-glucosidase (yeast).
T4 construct: other: p-nitrophenylglucoside substrate, 37° C
The assay can be described thus: Inhibition of yeast α-glucosidase, hydrolysis of p-nitrophenylglucoside followed spectrophotometrically. It counts as biochemical. The procedure:
(§1) The inhibitory activity of 3 against a series of enzyme was tested. Enzymes were assayed according to standard procedures (Halvorson, H. O., Methods Enzymol. 8, 55 (1966)) by following the hydrolysis of nitrophenyl glycosides spectrophotometrically or by evaluating the reducing sugar formed in some glucosidase assays. The enzymes used were α-glucosidase (yeast and rice), β-glucosidase (almond), α-galactosidase (green coffee beans), β-galactosidase (E. coli) and α-mannosidase (jack beans).
(§2) Inhibitory potency of 3 was determined by spectrophotometrically measuring the residual hydrolytic activities of the glycosidases against the corresponding nitrophenyl α- or β-D-glucopyranoside. The glycosidases used were α-glucosidase (yeast), α-glucosidase (rice), β-glucosidase (almond), α-galactosidase (green coffee beans), β-galactosidase (E. coli) and α-mannosidase (jack beans). All enzymes were purchased from Sigma. Each assay was performed in a phosphate or an acetate buffer at the optimal pH for each enzyme. Inhibition studies (except rice α-glucosidase) were performed by adding the inhibitor to a final concentration of 0.05 mM to 11 mM to the respective buffer solutions along with enzyme. The solutions were incubated at 37° C. before adding substrates to the solutions. The absorbance of the resulting mixture was determined at 400 nm (for p-nitrophenol).

Assay [7] addresses T1, α-glucosidase (rice). As to the kind of experiment: Inhibition of rice α-glucosidase, maltose substrate, glucose oxidase/peroxidase coupled assay. It counts as biochemical. The procedure: as §1
as §2, with “Inhibition studies (except rice α-glucosidase) were performed by adding the inhibitor to a final concentration of 0.05 mM to 11 mM to the respective buffer solutions along with enzyme. The solutions were incubated at 37° C. before adding substrates to the solutions.” left out
For rice α-glucosidase inhibition, maltose was used as the substrate, and the assay was based on the glucose oxidase/peroxidase enzyme procedure. […] The absorbance of the solution was determined at 500 nm for oxidized o-dianisidine. […] The absorbance of the solution was determined at 500 nm.

Assay [8] deals with β-glucosidase (almond). As to the kind of experiment: Inhibition of almond β-glucosidase, nitrophenyl glycoside hydrolysis. It counts as biochemical. As to the method: as §1, §2
Assay [9] deals with T2, α-galactosidase (green coffee beans). The assay can be described thus: Inhibition of green coffee bean α-galactosidase, nitrophenyl glycoside hydrolysis. It counts as biochemical. The procedure: as §1, §2
Assay [10] addresses T5, β-galactosidase (E. coli) (Escherichia coli, UniProt P00722).
T5 construct: purchased Sigma
The assay can be described thus: Inhibition of E. coli β-galactosidase, nitrophenyl glycoside hydrolysis. The assay is classed as biochemical. The procedure:
as §1, §2

Assay [11] concerns the target T3, α-mannosidase (jack beans). The assay can be described thus: Inhibition of jack bean α-mannosidase, nitrophenyl glycoside hydrolysis. The assay is classed as biochemical. The procedure:
as §1, §2

[12] abbreviates: literature values, n.i. = no inhibition observed.

The structures appear in SMILES notation. Like-named read-outs stand apart in the source and are kept apart here. Some results are limits rather than exact numbers.

T1 sequence (Q653V7 34-885): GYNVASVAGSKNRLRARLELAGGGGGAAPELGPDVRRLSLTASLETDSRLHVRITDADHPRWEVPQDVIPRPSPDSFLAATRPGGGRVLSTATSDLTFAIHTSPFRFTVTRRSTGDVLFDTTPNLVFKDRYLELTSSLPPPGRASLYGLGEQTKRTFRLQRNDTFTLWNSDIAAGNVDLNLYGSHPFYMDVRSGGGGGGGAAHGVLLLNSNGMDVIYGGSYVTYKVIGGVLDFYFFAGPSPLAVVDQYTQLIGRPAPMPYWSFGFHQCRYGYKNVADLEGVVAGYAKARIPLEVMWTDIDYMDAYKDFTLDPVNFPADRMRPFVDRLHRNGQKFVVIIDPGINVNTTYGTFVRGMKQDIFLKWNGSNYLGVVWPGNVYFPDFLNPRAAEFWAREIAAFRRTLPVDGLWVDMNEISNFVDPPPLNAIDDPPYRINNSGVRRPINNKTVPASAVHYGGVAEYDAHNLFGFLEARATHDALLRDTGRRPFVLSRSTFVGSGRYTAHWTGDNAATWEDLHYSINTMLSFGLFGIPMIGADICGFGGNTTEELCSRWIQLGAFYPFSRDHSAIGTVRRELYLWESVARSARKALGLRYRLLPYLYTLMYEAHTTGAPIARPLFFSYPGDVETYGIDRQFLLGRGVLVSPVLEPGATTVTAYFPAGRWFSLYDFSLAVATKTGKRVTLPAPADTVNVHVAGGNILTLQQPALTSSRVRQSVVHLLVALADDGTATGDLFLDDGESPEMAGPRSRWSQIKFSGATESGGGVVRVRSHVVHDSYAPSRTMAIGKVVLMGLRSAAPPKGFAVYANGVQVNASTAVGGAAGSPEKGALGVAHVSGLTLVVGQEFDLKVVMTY
T2 sequence (Q42656 16-378): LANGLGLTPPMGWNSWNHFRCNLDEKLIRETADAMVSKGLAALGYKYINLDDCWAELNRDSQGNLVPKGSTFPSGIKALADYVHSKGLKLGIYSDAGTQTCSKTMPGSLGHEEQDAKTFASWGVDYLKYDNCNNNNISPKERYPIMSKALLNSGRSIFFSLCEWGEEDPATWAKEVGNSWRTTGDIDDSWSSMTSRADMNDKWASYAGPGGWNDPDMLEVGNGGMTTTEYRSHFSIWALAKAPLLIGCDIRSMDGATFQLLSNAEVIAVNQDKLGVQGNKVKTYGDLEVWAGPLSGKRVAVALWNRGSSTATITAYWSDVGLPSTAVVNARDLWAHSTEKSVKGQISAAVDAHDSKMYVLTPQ
T5 sequence (P00722 2-1024): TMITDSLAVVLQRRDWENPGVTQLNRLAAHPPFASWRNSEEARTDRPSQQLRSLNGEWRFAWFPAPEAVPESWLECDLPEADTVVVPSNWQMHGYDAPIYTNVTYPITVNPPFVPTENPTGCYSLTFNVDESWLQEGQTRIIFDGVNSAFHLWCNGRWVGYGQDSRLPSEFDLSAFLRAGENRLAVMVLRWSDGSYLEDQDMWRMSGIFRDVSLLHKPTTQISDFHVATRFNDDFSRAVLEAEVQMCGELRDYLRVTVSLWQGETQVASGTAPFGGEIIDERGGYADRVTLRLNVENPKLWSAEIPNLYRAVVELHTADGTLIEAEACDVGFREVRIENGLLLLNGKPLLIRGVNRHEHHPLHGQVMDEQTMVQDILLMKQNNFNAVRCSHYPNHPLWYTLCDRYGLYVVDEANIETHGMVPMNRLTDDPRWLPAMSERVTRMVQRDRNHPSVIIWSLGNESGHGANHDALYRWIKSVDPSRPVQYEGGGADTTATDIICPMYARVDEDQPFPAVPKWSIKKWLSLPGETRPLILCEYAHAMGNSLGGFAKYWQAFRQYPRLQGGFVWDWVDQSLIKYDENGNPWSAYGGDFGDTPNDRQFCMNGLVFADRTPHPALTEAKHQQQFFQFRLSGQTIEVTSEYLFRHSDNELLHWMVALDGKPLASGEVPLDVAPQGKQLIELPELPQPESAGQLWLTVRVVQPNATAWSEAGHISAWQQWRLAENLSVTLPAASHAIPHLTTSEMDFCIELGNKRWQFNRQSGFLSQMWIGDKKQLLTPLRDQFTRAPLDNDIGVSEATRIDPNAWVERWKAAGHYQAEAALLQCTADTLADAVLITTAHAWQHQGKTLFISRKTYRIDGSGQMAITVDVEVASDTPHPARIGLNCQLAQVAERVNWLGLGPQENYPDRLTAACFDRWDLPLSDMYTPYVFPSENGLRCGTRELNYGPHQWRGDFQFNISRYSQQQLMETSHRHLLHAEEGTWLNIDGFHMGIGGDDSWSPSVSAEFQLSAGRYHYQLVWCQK

Broadly, the Ki is a measure of affinity in units of concentration, obtained from inhibition or displacement. For the molecule `O[C@H]1[C@H](O)[C@@H](O)CN2CC[C@H](O)[C@H]12` [Compound 1, castanospermine], the values for the Ki on α-glucosidase (yeast) [1], at α-glucosidase (rice) [2] and at β-glucosidase (almond) [3] (setting [12]) were above 1500 µM, 0.015 µM and 1.5 µM, respectively. The “Activity against yeast α-glucosidase, in words” value in the assay with α-glucosidase (yeast) [1] (literature) is “poor activity”. The “Activity against rice α-glucosidase, in words” value on α-glucosidase (rice) [2] (literature) was “strongly inhibited”. Also, the “Activity against almond β-glucosidase, in words” value in the assay on β-glucosidase (almond) [3] (literature) was “inhibiting”.
Take `NC1=N[C@H](CO)[C@@H](O)[C@H](O)[C@H]1O` [compound 12]: the inhibition constant (Ki) was around 10 µM at α-glucosidase (yeast) [1], 8 µM at β-glucosidase (almond) [3] (setting [12]) and around 10 µM in assay [4].
As for `CC1(C)O[C@H]2[C@H](O1)[C@@H](O)CSC[C@@H]2O` [compound 13], the “Activity against a β-glucosidase, in words” value in the assay on β-glucosidase is “inactive”.
Consider `O[C@@H]1[C@@H](O)[C@H](O)N2CCCC[C@H]2[C@H]1O` [compound 10], for which the “Inhibition activity Ki, β-glucosidase (almond)” value on β-glucosidase (almond) [3] (setting [12]) is recorded as “n.i”. For the same molecule, the “Inhibition activity Ki, α-galactosidase (green coffee beans)” value in assay [4] is reported as “n.i”.
On to `OC[C@H]1NC[C@H](O)[C@@H](O)[C@@H]1O` [compound 2, deoxynojirimycin], for which the Ki on α-glucosidase (rice) [2] is 0.01 µM; on β-glucosidase (almond) [3] (setting [12]), […].
The term IC50 denotes the concentration needed to halve the response being measured. Take `O[C@H]1[C@H](O)[C@H](O)CN2CCC[C@H](O)[C@H]12` [compound 11]: the half-inhibitory concentration (IC50) on α-glucosidase (yeast) [1] (literature value, read-out: Inhibition activity IC50, α-glucosidase (yeast)) was above 2000 µM; at β-glucosidase (almond) [3] (literature value, read-out: Inhibition activity IC50, β-glucosidase (almond)) it was above 2000 µM; in assay [5] (literature value, read-out: Inhibition activity IC50, α-mannosidase (jack beans)), above 2000 µM. The “Inhibition of α-mannosidase, in words” value in assay [5] (literature) was “extremely poor inhibition”.
For the molecule `O[C@H]1[C@H](O)[C@@H](O)CN2CCSC[C@H]12` [Compound 3, 7(S),8(R),9(R),10(S)-Trihydroxy-2-thiaquinolizidine], the “Type of inhibition, yeast α-glucosidase” value in the assay with α-glucosidase (yeast) [6] (double reciprocal plots, FIG. 6A) is on record as “competitive inhibition”. The Ki at α-glucosidase (yeast) [6] (p-nitrophenylglucoside substrate, 37° C.) was determined as 330 µM; at α-glucosidase (rice) [7] (maltose substrate, sodium acetate buffer pH 4.0, 37° C.) it was 900 µM. Also, the “Type of inhibition, rice α-glucosidase” value at α-glucosidase (rice) [7] (FIG. 6B) is reported as “competitive inhibition”. Further, the “Inhibitory activity towards β-glucosidase (almond), in words” value in the assay with β-glucosidase (almond) [8] (inhibitor 0.05 mM to 11 mM) is reported as “No inhibitory activity”. The “Inhibition activity Ki, β-glucosidase (almond)” value at β-glucosidase (almond) [8] (n.i. = no inhibition observed) is given as “n.i.^b”. In assay [9] (inhibitor 0.05 mM to 11 mM), the “Inhibitory activity towards α-galactosidase (green coffee beans), in words” value is “No inhibitory activity”. Also, the “Inhibition activity Ki, α-galactosidase (green coffee beans)” value in assay [9] (n.i. = no inhibition observed) is recorded as “n.i.^”. In assay [10] (inhibitor 0.05 mM to 11 mM), the “Inhibitory activity towards β-galactosidase (E-coli), in words” value is reported as “No inhibitory activity”. The “Inhibition activity Ki, β-galactosidase (E. Coli)” value in assay [10] (n.i. = no inhibition observed) was “n.i.^”. For the same molecule, the “Inhibitory activity towards α-mannosidase (jack bean), in words” value in assay [11] (inhibitor 0.05 mM to 11 mM) is recorded as “No inhibitory activity”. Also, in assay [11] (n.i. = no inhibition observed), the “Inhibition activity Ki, α-mannosidase (jack beans)” value is recorded as “n.i.^”.
